Experimental data: US11571407B2, “Bicalutamide analogs or (S)-bicalutamide as exocytosis activating compounds for use in the treatment of a lysosomal storage disorder or glycogenosis” (BCN PEPTIDES, S.A., priority 2013, dated 2023)
Marks after values point to notes of the source that are not given here.

Legend:
[1] = system: fibroblasts from patients affected by different lysosomal storage diseases; assay: Determination of lysosomal exocytosis (β-hexosaminidase activity in the culture medium); assay type: cell-based, human; details: vs untreated
Experimental: (§1) Fibroblasts from thirteen patients affected by seven different lysosomal storage diseases (Fabry, Gaucher, Hurler, Niemann-Pick type A/B, Sanfilippo A, Sanfilippo B and Tay-Sachs) were cultured in DMEM (Dulbecco's modified Eagles medium) with 10% fetal bovine serum and in the presence of antibiotics (penicillin and streptomycin), at 37° C. with 5% CO2. All reagents were purchased from PAA Laboratories (Velizy-Villacoublay, France). The fibroblasts of the patients were selected on the basis of availability of fibroblasts and measurable residual activity. The use of human samples was approved by the Ethical Committee of Hospital Clinic, Barcelona
Fibroblasts cultured for 72 h in 24 well-plates in the presence or absence of bicalutamide, (S)-bicalutamide, (S)-bicalutamide analogs or (R)-bicalutamide at different concentrations in triplicate (10 nmol/L, 100 nmol/L, 1 μmol/L, 10 μmol/L, 50 μmol/L and 100 μmol/L), were rinsed with physiological saline. The cells were lysed by using 3 freeze-thaw cycles. Then protein concentration was determined by using the Lowry method. Protein lysates (10 μg) were seeded in 96-well plates and the enzymatic activity of the enzyme involved in each disease was determined in triplicate by means of fluorimetric artificial substrates: 4-methylumbelliferyl-α-N-sulphoglucosaminide for Sanfilippo A, 4-methylumbelliferyl-2-acetamido-2 deoxy-α-D-glucopyranoside for Sanfilippo B, 4-methylumbelliferyl-α-L-iduronide for Hurler, 4-methylumbelliferyl-N-acetyl-β-D-glucosaminide for Tay-sachs, 4-methylumbelliferyl-β-D-glucopyranoside for Gaucher, 4-methylumbelliferyl-α-Galactopiranosid for Fabry disease, and 6-hexadecanoylamino-4-methylumbelliferyl-P-colline for Niemann-Pick type AB. The activity of the enzyme β-hexosaminidase was assayed by using 4-methylumbelliferyl-2 acetamido-2 deoxy-β-D-glucopyranoside as artificial substrate [Annunziata et al., Study of influence of sex and age on human serum lysosomal enzymes by using 4-methylumbelliferyl substrates. Clin. Chim. Acta.
Lysosomal exocytosis was monitorized by measuring the enzymatic activity of the lysosomal enzyme β-hexosaminidase in the culture medium [Xu M, et al, δ-Tocopherol reduces lipid accumulation in Niemann-Pick type C1 and Wolman cholesterol storage disorders. […] The fibroblasts were previously treated with different concentrations of bicalutamide, (S)-bicalutamide or (R)-bicalutamide (10 nmol/L, 100 nmol/L, 1 μmol/L, 10 μmol/L, 50 μmol/L and 100 μmol/L) in triplicate in 24-well plates. At 0, 24, 48 and 72 hours, 30 μL of culture medium was aliquoted for the subsequent β-hexosaminidase activity assay.
Fibroblasts from two patients affected by Sanfilippo B and Hurler diseases were treated with different concentrations of bicalutamide (racemic mixture at increasing concentrations of 0.01, 0.1, 1, 10 and 100 μM). And the increase in lysosomal exocytosis was determined by analyzing the enzymatic activity of the lysosomal enzyme β-hexosaminidase in the culture medium.
Fibroblasts from thirteen patients affected by different lysosomal storage diseases (four Sanfilippo B disease patients with different genotypes, three Sanfilippo A disease patients with different genotypes, two Tay-Sachs disease patients with the same genotype, one Gaucher disease patient, one Niemann-pick type A/B disease patient, one Hurler disease patient, and one Fabry disease patient) were independently treated with different concentrations of (R)- and (S)-bicalutamide (50 and 100 μM) for 72 hours.

[2] = system: fibroblasts from patients affected by different lysosomal storage diseases; assay: Determination of glycosaminoglycans (GAGs), 1,9-dimethylmethylene blue (DMB) assay; assay type: cell-based, human; details: vs untreated
Experimental: as §1
Glycobiology. […] The fibroblasts were cultured in triplicate in 6-well plates and they were harvested 72 hours after treatment. DMB absorbance was measured in duplicate at 656 nm with a microplate reader (POLARstar Omega, BMG LABTECH, Offenburg, Germany).
Fibroblasts from three patients affected by Sanfilippo B disease and one patient affected by Hurler disease were treated with increasing concentrations of bicalutamide (racemic mixture at increasing concentrations of 0.01, 0.1, 1, 10 and 100 μM). Glycosaminoglycans (GAGs) levels were quantified with the 1,9-dimethylmethylene blue (DMB) assay.
Fibroblasts from seven patients affected by different diseases derived from lysosomal storage (three Sanfilippo B disease patients with different genotypes, one Sanfilippo A disease patient, one Tay-Sachs disease patient, one Niemann-Pick type A/B disease patient and one Hurler disease patient) were independently treated with different concentrations of (R)- and (S)-bicalutamide (50 and 100 μM).

CC(O)(CS(=O)(=O)c1ccc(F)cc1)C(=O)Nc1ccc(C#N)c(C(F)(F)F)c1 (racemic) [Racemic Bicalutamide]
Increase in lysosomal Exocytosis (%) ([1]; Table 1 patient 1, Sanfilippo B fibroblasts, 10 nM): 31* % | Increase in lysosomal Exocytosis (%) ([1]; Table 1 patient 1, Sanfilippo B fibroblasts, 100 nM): 23* % | Increase in lysosomal Exocytosis (%) ([1]; Table 1 patient 1, Sanfilippo B fibroblasts, 1 μM): 49% | Increase in lysosomal Exocytosis (%) ([1]; Table 1 patient 1, Sanfilippo B fibroblasts, 10 μM): 45% | Increase in lysosomal Exocytosis (%) ([1]; Table 1 patient 1, Sanfilippo B fibroblasts, 100 μM): 100* % | Increase in lysosomal Exocytosis (%) ([1]; Table 1 patient 2, Hurler fibroblasts, 10 nM): 14% | Increase in lysosomal Exocytosis (%) ([1]; Table 1 patient 2, Hurler fibroblasts, 100 nM): 13% | Increase in lysosomal Exocytosis (%) ([1]; Table 1 patient 2, Hurler fibroblasts, 1 μM): 9% | Increase in lysosomal Exocytosis (%) ([1]; Table 1 patient 2, Hurler fibroblasts, 10 μM): 3% | Increase in lysosomal Exocytosis (%) ([1]; Table 1 patient 2, Hurler fibroblasts, 100 μM): 8% | Increase in lysosomal Exocytosis (%) ([1]; Table 1 patient 3, Control fibroblasts, 10 nM): 0% | Increase in lysosomal Exocytosis (%) ([1]; Table 1 patient 3, Control fibroblasts, 100 nM): 27% | Increase in lysosomal Exocytosis (%) ([1]; Table 1 patient 3, Control fibroblasts, 1 μM): 13% | Increase in lysosomal Exocytosis (%) ([1]; Table 1 patient 3, Control fibroblasts, 10 μM): 12* % | Increase in lysosomal Exocytosis (%) ([1]; Table 1 patient 3, Control fibroblasts, 100 μM): 13* % | Decrease of GAGs (%) ([2]; Table 2 patient 1, Sanfilippo B fibroblasts, 10 nM): 17% | Decrease of GAGs (%) ([2]; Table 2 patient 1, Sanfilippo B fibroblasts, 100 nM): 25% | Decrease of GAGs (%) ([2]; Table 2 patient 1, Sanfilippo B fibroblasts, 1 μM): 17% | Decrease of GAGs (%) ([2]; Table 2 patient 1, Sanfilippo B fibroblasts, 10 μM): 22* % | Decrease of GAGs (%) ([2]; Table 2 patient 1, Sanfilippo B fibroblasts, 100 μM): 54* % | Decrease of GAGs (%) ([2]; Table 2 patient 2, Sanfilippo B fibroblasts, 10 nM): 0% | Decrease of GAGs (%) ([2]; Table 2 patient 2, Sanfilippo B fibroblasts, 100 nM): 16% | Decrease of GAGs (%) ([2]; Table 2 patient 2, Sanfilippo B fibroblasts, 1 μM): 0% | Decrease of GAGs (%) ([2]; Table 2 patient 2, Sanfilippo B fibroblasts, 10 μM): 0% | Decrease of GAGs (%) ([2]; Table 2 patient 2, Sanfilippo B fibroblasts, 100 μM): 20% | Decrease of GAGs (%) ([2]; Table 2 patient 3, Sanfilippo B fibroblasts, 10 nM): 53% | Decrease of GAGs (%) ([2]; Table 2 patient 3, Sanfilippo B fibroblasts, 100 nM): 13% | Decrease of GAGs (%) ([2]; Table 2 patient 3, Sanfilippo B fibroblasts, 1 μM): 33% | Decrease of GAGs (%) ([2]; Table 2 patient 3, Sanfilippo B fibroblasts, 10 μM): 33% | Decrease of GAGs (%) ([2]; Table 2 patient 3, Sanfilippo B fibroblasts, 100 μM): 0% | Decrease of GAGs (%) ([2]; Table 2 patient 4, Hurler fibroblasts, 10 nM): 0% | Decrease of GAGs (%) ([2]; Table 2 patient 4, Hurler fibroblasts, 100 nM): 0% | Decrease of GAGs (%) ([2]; Table 2 patient 4, Hurler fibroblasts, 1 μM): 0% | Decrease of GAGs (%) ([2]; Table 2 patient 4, Hurler fibroblasts, 10 μM): 0% | Decrease of GAGs (%) ([2]; Table 2 patient 4, Hurler fibroblasts, 100 μM): 0% | Decrease of GAGs (%) ([2]; Table 2 patient 5, Control fibroblasts, 10 nM): 0% | Decrease of GAGs (%) ([2]; Table 2 patient 5, Control fibroblasts, 100 nM): 0% | Decrease of GAGs (%) ([2]; Table 2 patient 5, Control fibroblasts, 1 μM): 0% | Decrease of GAGs (%) ([2]; Table 2 patient 5, Control fibroblasts, 10 μM): 0% | Decrease of GAGs (%) ([2]; Table 2 patient 5, Control fibroblasts, 100 μM): 0%
